Results reported in paper PMC8330735 (Journal of Enzyme Inhibition and Medicinal Chemistry, 2021).

Columns and labels:
[1] = test system: carrageenan-induced rat paw oedema; test: Carrageenan-induced rat paw oedema test; type: in vivo; details: compounds and celecoxib 50 mg/kg, ibuprofen and indomethacin 20 mg/kg; for Mean oedema thickness 1h: 1 h after carrageenan; for Mean oedema thickness 1h / Mean oedema thickness 2h / Mean oedema thickness 3h / Mean oedema thickness 4h / Mean oedema thickness 5h / Mean oedema thickness 24h / Mean oedema thickness 0h: mean ± SEM, n = 5; for Mean oedema thickness 2h: 2 h after carrageenan; for Mean oedema thickness 3h: 3 h after carrageenan; for Mean oedema thickness 4h: 4 h after carrageenan; for Mean oedema thickness 5h: 5 h after carrageenan; for Mean oedema thickness 24h: 24 h after carrageenan; for Mean oedema thickness 0h: before carrageenan (0 h); for Average oedema inhibition%: from area under the curve of all time points
Method: The rats were divided into nine groups (n = 5/group). All tested compounds were suspended in 1% Tween-80. Group 1, controls, were given the vehicle (1% Tween80, 10 ml/kg). […] The rats were given the drugs 1 h before the injection of carrageenan solution (1% in 0.9% NaCl, 0.1 ml) (Sigma Aldrich, USA) in the sub-planter tissue of the right hind paw. The paw thickness (mm) was measured using a calliper before (0 h) and after carrageenan injection at 1, 2, 3, 4, 5 and 24 h. The inhibition of oedema thickness was calculated using the following formula (control– drug/control) × 100.

[2] = test system: NO production in LPS-activated RAW 264.7 macrophages; test: NO production in LPS-activated RAW 264.7 macrophages (DAF-FM); type: cell-based; details: Mus musculus, RAW264.7; LPS 1 µg/mL activated RAW 264.7
Method: HCA7 colorectal cancer cell line was obtained from Sigma. […] Louis, MO) containing 10% heat-inactivated foetal bovine serum (HI-FBS) (Gibco, USA), 100 μg/mL streptomycin (Invitrogen, USA), and […] penicillin (Invitrogen, USA)[40]. HCA7 and RAW 264.7 cells were cultured in Dulbecco's minimal essential media (DMEM, Invitrogen) containing 10% HI-FBS, sodium pyruvate (1 mM), penicillin ([…]), and streptomycin (100 mg/m)[41]^,[42]. […] Molecular Probes, USA). Briefly, RAW 264.7 cells were cultured in black 96-well plates (200,000 cells/mL, 100 µl/well) for 24 h. […] The fluorescence intensity, which is directly proportional to NO levels, was quantified, as detailed in our previous study. IC50 values were calculated from the dose–response curves.

[3] = test system: ROS production in LPS-activated RAW 264.7 macrophages; test: ROS production in LPS-activated RAW 264.7 macrophages (DCFH-DA); type: cell-based; details: Mus musculus, RAW264.7; LPS 1 µg/mL activated RAW 264.7
Method: HCA7 colorectal cancer cell line was obtained from Sigma. […] Louis, MO) containing 10% heat-inactivated foetal bovine serum (HI-FBS) (Gibco, USA), 100 μg/mL streptomycin (Invitrogen, USA), and […] penicillin (Invitrogen, USA)[40]. HCA7 and RAW 264.7 cells were cultured in Dulbecco's minimal essential media (DMEM, Invitrogen) containing 10% HI-FBS, sodium pyruvate (1 mM), penicillin ([…]), and streptomycin (100 mg/m)[41]^,[42]. […] The cells were cultured, incubated with the different test compounds, and activated with LPS (1 µg/mL) as detailed above. […] IC50 values were calculated from the dose–response curves.

HCT116 cells = test: MTS cell viability assay HCT116; type: cell-based; details: Homo sapiens, HCT-116, 48 h, cell line scarcely expressing COX-2
Method: (§1) Human colorectal cancer cell lines, HCT116 and HT29, and RAW 264.7 macrophages were obtained from ATCC (Manassas, VA). HCA7 colorectal cancer cell line was obtained from Sigma. HT29 and HCT116 cells were cultured in McCoy's 5 A medium (Sigma Aldrich, St. Louis, MO) containing 10% heat-inactivated foetal bovine serum (HI-FBS) (Gibco, USA), 100 μg/mL streptomycin (Invitrogen, USA), and […] penicillin (Invitrogen, USA)[40]. HCA7 and RAW 264.7 cells were cultured in Dulbecco's minimal essential media (DMEM, Invitrogen) containing 10% HI-FBS, sodium pyruvate (1 mM), penicillin ([…]), and streptomycin (100 mg/m)[41]^,[42].
(§2) Cells were cultured in 96‐well plates for 48 h and then treated with serum-free media containing different concentrations of the tested compounds (12.5, 25, 50, 100 and 150 µM). After 48 h., MTS reagent (Promega) was added as directed by the manufacturer, and then, the absorbance was measured at 495 nm. The absorbance is proportional to the number of viable cells. IC50 was calculated from the dose-response curves as described previously[45] using GraphPad Prism 8 software (GraphPad Software, San Diego, CA).

HT29 cells = test: MTS cell viability assay HT29; type: cell-based; details: Homo sapiens, HT-29, 48 h, cell line moderately expressing COX-2
Method: as §1, §2

HCA7 cells = test: MTS cell viability assay HCA7; type: cell-based; details: Homo sapiens, HCA-7, 48 h, cell line highly expressing COX-2
Method: as §1, §2

[4] = test system: stomach ulceration in rats; test: Gastric acute ulcerogenic activity; details: rat, n = 5; for Ulcer Index (UI): UI = UN + US + UP×10^−1
Method: The rats from the previous experiment were fasted for 12 h., followed by the administration of additional doses of the selected compounds or the two references for two consecutive days. Six hrs after the last treatment, the animals were sacrificed, and their stomachs were removed, washed with saline solution (0.9%) and examined for ulceration using a magnifying lens. The ulcer scores were estimated according to the method prescribed by Kulkarni and as detailed in our previous studies[36–38]. The following scores were individually assigned to each lesion: normal coloured stomach, 0; red colouration, 0.5; spot ulcers, 1; haemorrhagic streaks, 1.5; ulcer >3 but <5 mm, 2; and ulcers >5 mm, 3.

ovine COX-1 = molecular target: T1, ovine COX-1 (Ovis aries, UniProt P05979); test: In vitro COX-1 inhibitory assay (colorimetric Cayman kit)
T1 sequence (P05979 25-600): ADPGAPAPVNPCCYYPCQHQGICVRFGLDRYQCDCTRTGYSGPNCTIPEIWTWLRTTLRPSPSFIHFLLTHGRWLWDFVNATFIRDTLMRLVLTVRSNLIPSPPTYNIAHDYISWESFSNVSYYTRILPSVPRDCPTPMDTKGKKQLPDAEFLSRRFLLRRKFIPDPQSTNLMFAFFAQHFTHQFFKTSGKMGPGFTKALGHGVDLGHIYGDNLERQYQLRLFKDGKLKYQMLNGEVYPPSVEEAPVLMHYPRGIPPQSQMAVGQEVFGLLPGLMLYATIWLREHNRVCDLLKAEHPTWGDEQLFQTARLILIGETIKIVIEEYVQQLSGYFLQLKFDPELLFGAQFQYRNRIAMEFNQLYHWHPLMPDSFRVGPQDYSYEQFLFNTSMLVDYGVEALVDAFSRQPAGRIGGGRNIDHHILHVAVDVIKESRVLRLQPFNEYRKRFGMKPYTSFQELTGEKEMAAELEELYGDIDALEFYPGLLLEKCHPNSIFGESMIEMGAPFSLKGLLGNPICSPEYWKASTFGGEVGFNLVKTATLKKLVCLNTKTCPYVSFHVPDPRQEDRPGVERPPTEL
Method: (§3) All the newly synthesised compounds were tested for their ability to inhibit COX-1 and COX-2 enzymes using a screening assay method.

human recombinant COX-2 = molecular target: T2, human recombinant COX-2 (Homo sapiens, UniProt P35354); test: In vitro COX-2 inhibitory assay (colorimetric Cayman kit); details: for Selectivity Index (SI): COX-1 IC50/COX-2 IC50
T2 sequence (P35354 18-604): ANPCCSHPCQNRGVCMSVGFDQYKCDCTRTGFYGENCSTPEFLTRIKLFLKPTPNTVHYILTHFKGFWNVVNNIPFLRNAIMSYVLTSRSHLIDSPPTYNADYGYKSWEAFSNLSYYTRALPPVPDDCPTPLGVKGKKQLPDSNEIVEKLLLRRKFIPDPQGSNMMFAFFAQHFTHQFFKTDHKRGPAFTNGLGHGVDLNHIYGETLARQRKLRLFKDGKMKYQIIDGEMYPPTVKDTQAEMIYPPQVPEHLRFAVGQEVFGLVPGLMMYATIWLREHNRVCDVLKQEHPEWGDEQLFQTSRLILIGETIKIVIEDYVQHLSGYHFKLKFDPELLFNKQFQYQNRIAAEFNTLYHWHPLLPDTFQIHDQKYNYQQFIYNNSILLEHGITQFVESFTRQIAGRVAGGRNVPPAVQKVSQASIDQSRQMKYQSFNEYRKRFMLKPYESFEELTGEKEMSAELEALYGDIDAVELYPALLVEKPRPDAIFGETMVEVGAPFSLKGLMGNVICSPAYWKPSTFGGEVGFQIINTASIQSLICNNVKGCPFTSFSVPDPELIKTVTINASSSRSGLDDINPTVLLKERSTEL
Method: as §3

| SMILES | Mean oedema thickness 1h [1] | Mean oedema thickness 2h [1] | Mean oedema thickness 3h [1] | Mean oedema thickness 4h [1] | Mean oedema thickness 5h [1] | Mean oedema thickness 24h [1] | Mean oedema thickness 0h [1] | Average oedema inhibition% [1] | IC50 [2] | IC50 [3] | IC50 (HCT116 cells) | IC50 (HT29 cells) | IC50 (HCA7 cells) | Average Ulcer number [4] | Lesion Incidence (%) [4] | Number of rats with ulcer [4] | IC50 (ovine COX-1) | IC50 (human recombinant COX-2) | Selectivity Index (SI) (human recombinant COX-2) | melting point | further results |
| --- | --- | --- | --- | --- | --- | --- | --- | --- | --- | --- | --- | --- | --- | --- | --- | --- | --- | --- | --- | --- | --- |
| CN1c2ccccc2C(=O)N(NC(=O)Cc2c[nH]c3ccccc23)C1c1ccc(Cl)cc1 (stereo not shown) [4a, N-(2-(4-chlorophenyl)-1-methyl-4-oxo-1,4-dihydroquinazolin-3(2H)-yl)-2-(1H-indol-3-yl)acetamide] | 2.67 ± 0.24 mm | 2.90 ± 0.33 mm | 2.14 ± 0.25 mm | 2.04 ± 0.24 mm | 1.39 ± 0.06 mm | 0.54 ± 0.21 mm | 0.00 ± 0.00 mm | 33.40% | 31.5 ± 1.08 µM | 29.7 ± 1.07 µM | 75.35 ± 0.1 µM | 15.42 ± 0.06 µM | 137.3 ± 0.08 µM | 1.6 | 60% | 3 | 12.68 ± 0.11 µM | 0.04 ± 0.08 µM | 317.00 | – | – |
| CN1c2ccccc2C(=O)N(NC(=O)Cc2c[nH]c3ccccc23)C1c1ccc([N+](=O)[O-])cc1 (stereo not shown) [4b, 2-(1 h-indol-3-yl)-N-(1-methyl-2-(4-nitrophenyl)-4-oxo-1,4dihydroquinazolin-3(2H)-yl)acetamide] | 1.39 ± 0.09 mm | 1.89 ± 0.25 mm | 1.70 ± 0.17 mm | 1.14 ± 0.22 mm | 1.42 ± 0.28 mm | 0.16 ± 0.08 mm | 0.00 ± 0.00 mm | 49.47% | 32.2 ± 1.32 µM | 24.5 ± 2.06 µM | > 150 µM | 66.67 ± 0.07 µM | > 150 µM | 0.8 | 20% | 1 | 6.93 ± 0.15 µM | 0.07 µM | 99.00 | 239 to 243 °C | Ulcer Index (UI) [4]: 3 |
| O=C(CSc1nc2ccccc2c(=O)n1NC(=O)Cc1ccccc1)NNC(=O)c1ccccc1 [14c, N-(2-((2-(2-benzoylhydrazinyl)-2-oxoethyl)thio)-4-oxoquinazolin-3(4H)-yl)-2-phenylacetamide] | 3.02 ± 0.35 mm | 2.89 ± 0.13 mm | 2.42 ± 0.18 mm | 2.37 ± 0.19 mm | 2.34 ± 0.23 mm | 0.57 ± 0.09 mm | 0.00 ± 0.00 mm | 31.86% | 13 ± 1.36 µM | 16.2 ± 1.3 µM | > 150 µM | > 150 µM | > 150 µM | 0.8 | 40% | 2 | 15.4 ± 0.17 µM | 0.04 µM | 359.74 | 235 to 240 °C | Ulcer Index (UI) [4]: 5.3 |
